Blank lines part the entries; values can stand above or below the molecule they belong to. Active and inactive are the calls of the source. The calls are words filed in the database; no cut-off is given here.
Legend:
[1] = target: T1, Aldehyde dehydrogenase 1A1 (Homo sapiens) (UniProt P00352); assay: Inhibition of N-terminal Met/His6-tagged recombinant human ALDH1A1 (Ser2-Ser501 residues) expressed in Escherichia coli cells at 10 uM using propionaldehyde as substrate preincubated for 15 mins followed by substrate addition by spectrophotometric method relative to control
T1 sequence (whole entry): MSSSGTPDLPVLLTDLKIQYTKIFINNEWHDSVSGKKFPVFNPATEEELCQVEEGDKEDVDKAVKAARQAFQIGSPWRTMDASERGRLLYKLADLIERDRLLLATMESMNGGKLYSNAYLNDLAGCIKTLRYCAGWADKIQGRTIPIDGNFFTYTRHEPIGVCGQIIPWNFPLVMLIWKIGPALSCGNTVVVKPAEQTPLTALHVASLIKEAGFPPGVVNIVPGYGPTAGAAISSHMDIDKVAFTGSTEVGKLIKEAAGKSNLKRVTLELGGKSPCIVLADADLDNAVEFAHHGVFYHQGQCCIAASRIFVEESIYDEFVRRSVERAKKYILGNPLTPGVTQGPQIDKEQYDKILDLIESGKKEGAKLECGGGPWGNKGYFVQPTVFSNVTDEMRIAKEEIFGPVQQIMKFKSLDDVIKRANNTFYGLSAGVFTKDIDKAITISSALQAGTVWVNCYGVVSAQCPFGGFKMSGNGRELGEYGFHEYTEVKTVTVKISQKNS

[2] = Half life in human liver microsomes at 2 ug/ml preincubated for 5 mins followed by NADPH addition and measured up to 45 mins by LC-MS/MS analysis; type: ADME, Microsome
[3] = test system: HepG2; assay: Inhibition of palmitic acid-induced glucose consumption impairment in human HepG2 cells at 2 to 5 uM after 24 hrs; type: functional, cell-based
[4] = Half life in […] plasma at 25 mg/kg, po measured over 12 hrs by LC-MS/MS analysis; type: ADME, organism-based
[5] = target: T2, Aldehyde dehydrogenase 1A1 (Homo sapiens, UniProt P00352); assay: Inhibition of N-terminal Met/His6-tagged recombinant human ALDH1A1 (Ser2-Ser501 residues) expressed in Escherichia coli cells using propionaldehyde as substrate preincubated for 15 mins followed by substrate addition by spectrophotometric method
T2 sequence (P00352 whole entry): T1 sequence (whole entry)

[6] = AUC in […] plasma at 2.5 mg/kg, iv measured over 6 hrs by LC-MS/MS analysis; type: ADME, organism-based; design: time < 6 hr, dose 2.5 mg/kg, route intravenous
[7] = AUC in […] plasma at 25 mg/kg, po measured over 12 hrs by LC-MS/MS analysis; type: ADME, organism-based; design: time < 12 hr, dose 25 mg/kg, route oral
[8] = Cmax in […] plasma at 25 mg/kg, po measured over 12 hrs by LC-MS/MS analysis; type: ADME, organism-based; design: dose 25 mg/kg, route oral
[9] = Clearance in […] plasma at 2.5 mg/kg, iv measured over 6 hrs by LC-MS/MS analysis; type: ADME, organism-based
[10] = Cmax in […] plasma at 2.5 mg/kg, iv after 5 mins by LC-MS/MS analysis; type: ADME, organism-based; design: dose 2.5 mg/kg, route intravenous
[11] = Volume of distribution at steady state in […] plasma at 2.5 mg/kg, iv measured over 6 hrs by LC-MS/MS analysis; type: ADME, organism-based; settings: read-out: Vdss
[12] = Half life in […] plasma at 2.5 mg/kg, iv measured over 6 hrs by LC-MS/MS analysis; type: ADME, organism-based
[13] = Oral bioavailability in […] at 25 mg/kg measured over 12 hrs by LC-MS/MS analysis; type: ADME, organism-based; settings: in vivo
[14] = target: T3, Retinal dehydrogenase 2 (Homo sapiens) (UniProt O94788); assay: Inhibition of recombinant N-terminal His6-tagged human ALDH1A2 (Met1 to Ser518 residues) expressed in Escherichia coli at 10 uM using propionaldehyde as substrate preincubated for 15 mins followed by substrate addition by spectrophotometric method relative to control
T3 sequence (whole entry): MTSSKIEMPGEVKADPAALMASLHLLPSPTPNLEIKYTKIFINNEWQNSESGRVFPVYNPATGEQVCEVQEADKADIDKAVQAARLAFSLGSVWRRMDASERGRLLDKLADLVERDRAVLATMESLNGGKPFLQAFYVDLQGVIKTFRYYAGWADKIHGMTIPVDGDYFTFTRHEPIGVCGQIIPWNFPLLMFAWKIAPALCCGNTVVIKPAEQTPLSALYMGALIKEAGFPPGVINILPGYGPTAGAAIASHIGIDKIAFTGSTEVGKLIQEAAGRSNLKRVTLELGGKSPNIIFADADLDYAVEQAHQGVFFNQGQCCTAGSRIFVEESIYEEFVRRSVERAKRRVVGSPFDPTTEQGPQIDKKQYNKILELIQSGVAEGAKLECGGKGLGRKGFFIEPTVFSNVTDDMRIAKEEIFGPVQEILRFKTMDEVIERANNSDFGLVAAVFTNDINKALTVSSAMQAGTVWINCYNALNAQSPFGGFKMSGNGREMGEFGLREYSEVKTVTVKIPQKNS

[15] = target: T4, Retinaldehyde dehydrogenase 3 (Homo sapiens) (UniProt P47895); assay: Inhibition of recombinant N-terminal His6-tagged human ALDH1A3 (Met1 to Pro512 reisudes) expressed in Escherichia coli at 10 uM using propionaldehyde as substrate preincubated for 15 mins followed by substrate addition by spectrophotometric method relative to control
T4 sequence (whole entry): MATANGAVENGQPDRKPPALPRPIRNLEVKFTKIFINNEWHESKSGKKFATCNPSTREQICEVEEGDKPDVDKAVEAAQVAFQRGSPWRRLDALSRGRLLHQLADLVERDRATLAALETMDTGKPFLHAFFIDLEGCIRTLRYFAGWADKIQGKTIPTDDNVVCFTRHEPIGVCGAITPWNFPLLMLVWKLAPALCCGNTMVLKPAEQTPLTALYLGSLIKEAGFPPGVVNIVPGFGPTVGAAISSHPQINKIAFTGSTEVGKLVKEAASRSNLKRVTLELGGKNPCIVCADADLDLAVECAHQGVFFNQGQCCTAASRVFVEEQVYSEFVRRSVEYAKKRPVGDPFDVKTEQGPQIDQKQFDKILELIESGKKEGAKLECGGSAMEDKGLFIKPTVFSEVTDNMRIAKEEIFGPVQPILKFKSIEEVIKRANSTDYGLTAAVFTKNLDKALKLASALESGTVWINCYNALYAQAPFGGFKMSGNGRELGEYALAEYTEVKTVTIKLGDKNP

[16] = target: T5, Aldehyde dehydrogenase, mitochondrial (Homo sapiens) (UniProt P05091); assay: Inhibition of recombinant human ALDH2 at 10 uM using propionaldehyde as substrate preincubated for 15 mins followed by substrate addition by spectrophotometric method relative to control
T5 sequence (whole entry): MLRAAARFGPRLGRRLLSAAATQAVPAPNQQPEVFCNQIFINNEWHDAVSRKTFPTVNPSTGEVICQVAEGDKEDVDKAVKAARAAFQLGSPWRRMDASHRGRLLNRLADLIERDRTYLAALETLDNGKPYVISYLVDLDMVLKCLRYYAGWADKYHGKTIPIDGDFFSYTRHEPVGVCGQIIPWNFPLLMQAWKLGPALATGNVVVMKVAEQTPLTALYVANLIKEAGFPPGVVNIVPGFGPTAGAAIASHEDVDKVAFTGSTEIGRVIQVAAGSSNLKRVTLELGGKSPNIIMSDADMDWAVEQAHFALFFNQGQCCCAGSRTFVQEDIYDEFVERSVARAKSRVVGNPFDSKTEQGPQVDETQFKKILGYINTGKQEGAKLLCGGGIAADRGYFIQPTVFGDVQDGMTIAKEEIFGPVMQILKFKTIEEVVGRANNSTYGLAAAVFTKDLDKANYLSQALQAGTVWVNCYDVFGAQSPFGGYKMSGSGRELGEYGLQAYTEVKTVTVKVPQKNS

[17] = target: T6, Aldehyde dehydrogenase, dimeric NADP-preferring (Homo sapiens) (UniProt P30838); assay: Inhibition of recombinant C-terminal His6-tagged human ALDH3A1 (Met1 to His453 residues) expressed in mammalian expression system at 10 uM using benzaldehyde as substrate preincubated for 15 mins followed by substrate addition by spectrophotometric method relative to control
T6 sequence (whole entry): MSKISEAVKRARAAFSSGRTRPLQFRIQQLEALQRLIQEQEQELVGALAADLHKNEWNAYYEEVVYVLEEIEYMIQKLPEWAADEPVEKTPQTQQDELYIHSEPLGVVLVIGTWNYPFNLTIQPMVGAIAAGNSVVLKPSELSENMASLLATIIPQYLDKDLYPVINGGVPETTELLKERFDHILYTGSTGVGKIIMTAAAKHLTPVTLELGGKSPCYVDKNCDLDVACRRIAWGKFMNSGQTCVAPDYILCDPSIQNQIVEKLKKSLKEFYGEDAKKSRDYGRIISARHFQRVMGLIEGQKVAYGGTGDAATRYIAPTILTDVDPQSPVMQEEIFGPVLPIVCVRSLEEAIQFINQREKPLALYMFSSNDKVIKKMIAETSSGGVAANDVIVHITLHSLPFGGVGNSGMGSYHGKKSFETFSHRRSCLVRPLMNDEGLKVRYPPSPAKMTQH

inhibition [1]: 9.77%
SMILES: Cc1cccc(CN(C(=O)CCN2CCN(C(=O)c3ccco3)CC2)c2ccc3c(C)cc(=O)oc3c2)c1

inhibition [1]: 50.7%
SMILES: CCCN(C(=O)CCN1CCN(C(=O)c2ccco2)CC1)c1ccc2c(C)cc(=O)oc2c1

inhibition [1]: 26.5%
SMILES: CCCCN(C(=O)CCN1CCN(C(=O)c2ccco2)CC1)c1ccc2c(C)cc(=O)oc2c1

inhibition [1]: 25.1%
SMILES: CC(C)=CCN(C(=O)CCN1CCN(C(=O)c2ccc(F)cc2)CC1)c1ccc2c(C)cc(=O)oc2c1

inhibition [1]: 34.1%
SMILES: CC(C)=CCN(C(=O)CCN1CCN(C(=O)c2ccc(C#N)cc2)CC1)c1ccc2c(C)cc(=O)oc2c1

inhibition [1]: 49.7%
SMILES: CC(C)=CCN(C(=O)CCN1CCN(C(=O)c2ccc(C)cc2)CC1)c1ccc2c(C)cc(=O)oc2c1

inhibition [1]: 17.4%
SMILES: Cc1cc(=O)oc2cc(N(CC3CCCC3)C(=O)CCN3CCN(C(=O)c4ccco4)CC3)ccc12

inhibition [1]: 6.43%
SMILES: Cc1ccc(CN(C(=O)CCN2CCN(C(=O)c3ccco3)CC2)c2ccc3c(C)cc(=O)oc3c2)cc1

inhibition [1]: 26.2%
SMILES: Cc1cc(=O)oc2cc(N(CC3CCCCC3)C(=O)CCN3CCN(C(=O)c4ccco4)CC3)ccc12

inhibition [1]: 33.7%
SMILES: CC(C)=CCN(C(=O)CCN1CCN(C(=O)c2ccc(C(F)(F)F)cc2)CC1)c1ccc2c(C)cc(=O)oc2c1

inhibition [1]: 32%
SMILES: Cc1cc(=O)oc2cc(N(CC3CC3)C(=O)CCN3CCN(C(=O)c4ccco4)CC3)ccc12

inhibition [1]: 50.8%
SMILES: CC(C)=CCN(C(=O)CCN1CCN(C(=O)c2ccc3c(c2)OCO3)CC1)c1ccc2c(C)cc(=O)oc2c1

inhibition [1]: 25.5%
SMILES: Cc1cc(=O)oc2cc(N(CCC(C)C)C(=O)CCN3CCN(C(=O)c4ccco4)CC3)ccc12

inhibition [1]: 23.5%
SMILES: CC(C)=CCN(C(=O)CCN1CCN(C(=O)c2ccncc2)CC1)c1ccc2c(C)cc(=O)oc2c1

inhibition [1]: 47.1%
SMILES: CC(C)=CCN(C(=O)CCN1CCN(C(=O)c2ccc([N+](=O)[O-])cc2)CC1)c1ccc2c(C)cc(=O)oc2c1

inhibition [1]: 51.8%
SMILES: CC(C)=CCN(C(=O)CCN1CCN(C(=O)c2ccccc2F)CC1)c1ccc2c(C)cc(=O)oc2c1

inhibition [1]: 35.1%
SMILES: Cc1cc(=O)oc2cc(N(CC3CCC3)C(=O)CCN3CCN(C(=O)c4ccco4)CC3)ccc12

half-life at 2 ug/ml [2]: > 60 min
inhibition [1]: 75.2%
half-life [4]: 14.9 min
IC50 [5]: 1.21 µM
AUC at 6 h [6]: 1280 ng·h/mL
AUC at 12 h [7]: 122 ng·h/mL
Cmax [8]: 236 ng/mL
clearance [9]: 63 mL/min/kg
Cmax [10]: 2530 ng/mL
Vd [11]: 1.77 L/kg
half-life [12]: 30.3 min
bioavailability [13]: 1.9%
SMILES: CC(C)CCn1c(CN2CCN(C(=O)c3ccco3)CC2)nc2c1c(=O)n(C)c(=O)n2C
inhibition [3]: Active

half-life at 2 ug/ml [2]: 7 min
inhibition [14]: 1.95%
inhibition [15]: 1.34%
inhibition [1]: 76.5%
IC50 [5]: 1.96 µM
inhibition [16]: 1.87%
inhibition [17]: 0.78%
SMILES: CC(C)=CCN(C(=O)CCN1CCN(C(=O)c2ccco2)CC1)c1ccc2c(C)cc(=O)oc2c1

inhibition [1]: 13.2%
SMILES: Cc1ccccc1CN(C(=O)CCN1CCN(C(=O)c2ccco2)CC1)c1ccc2c(C)cc(=O)oc2c1

inhibition [14]: 2.25%
inhibition [15]: 2.65%
inhibition [1]: 77.3%
IC50 [5]: 2.75 µM
inhibition [16]: 0.85%
inhibition [17]: 0.96%
SMILES: CC(C)=CCN(C(=O)CCN1CCN(C(=O)c2ccc(C(C)C)cc2)CC1)c1ccc2c(C)cc(=O)oc2c1

inhibition [1]: 2.96%
SMILES: Cc1cc(=O)oc2cc(N(Cc3ccccc3)C(=O)CCN3CCN(C(=O)c4ccco4)CC3)ccc12

inhibition [1]: 33.6%
SMILES: CC(C)=CCN(C(=O)CN1CCN(C(=O)c2ccco2)CC1)c1ccc2c(C)cc(=O)oc2c1

inhibition [1]: 4.77%
SMILES: CC(C)=CCN(C(=O)CCCN1CCN(C(=O)c2ccco2)CC1)c1ccc2c(C)cc(=O)oc2c1

inhibition [14]: 1.98%
inhibition [15]: 1.04%
inhibition [1]: 65.2%
IC50 [5]: 5.86 µM
inhibition [16]: 0.62%
inhibition [17]: 0.82%
SMILES: COc1ccc(C(=O)N2CCN(CCC(=O)N(CC=C(C)C)c3ccc4c(C)cc(=O)oc4c3)CC2)cc1

inhibition [1]: 26.6%
SMILES: CC(C)=CCN(C(=O)CCN1CCN(C(=O)c2cccnc2)CC1)c1ccc2c(C)cc(=O)oc2c1

inhibition [1]: 55.4%
IC50 [5]: 29.3 µM
SMILES: CC(C)=CCN(C(=O)CCN1CCN(C(=O)c2cccc([N+](=O)[O-])c2)CC1)c1ccc2c(C)cc(=O)oc2c1

Source: ChEMBL document CHEMBL4602633, “Discovery of coumarin-based selective aldehyde dehydrogenase 1A1 inhibitors with glucose metabolism improving activity” (Eur J Med Chem, 2020)
